Experiment [1] concerns MCF7. In words: Antiproliferative activity against human MCF7 cells assessed as cell survival at 100 uM after 72 hrs under hypoxic condition by MTT assay. In kind it is functional. As to conditions: for viability at 100 µM: read-out: Activity. For orientation: Formazan colour is commonly taken as a measure of viable cells.
The test system of experiment [2] is MCF7. The experiment can be described thus: Antiproliferative activity against human MCF-7 cells assessed as cell survival at 100 uM after 72 hrs under normoxic condition by MTT assay. In kind it is functional. The conditions noted are these: for viability at 100 µM: read-out: Activity.
The target of another experiment is Carbonic anhydrase 1 (Homo sapiens, UniProt P00915). The experiment can be described thus: Inhibition of recombinant human CA1 pre-incubated for 15 mins prior to testing by phenol red-based stopped-flow CO2 hydration assay.
Experiment [3] concerns MDA-MB-231. The experiment can be described thus: Antiproliferative activity against human MDA-MB-231 cells assessed as reduction in cell viability at 100 uM after 72 hrs under normoxic condition by MTT assay. In kind it is functional.
The test system of experiment [4] is MDA-MB-231. In words: Antiproliferative activity against human MDA-MB-231 cells assessed as reduction in cell viability at 100 uM after 72 hrs under hypoxic condition by MTT assay. In kind it is functional.
A further experiment deals with Carbonic anhydrase 12 (Homo sapiens, UniProt O43570). The experiment can be described thus: Inhibition of recombinant human CA12 pre-incubated for 15 mins prior to testing by phenol red-based stopped-flow CO2 hydration assay.
A further experiment addresses Carbonic anhydrase 9 (Homo sapiens, UniProt Q16790). In words: Inhibition of recombinant human CA9 pre-incubated for 15 mins prior to testing by phenol red-based stopped-flow CO2 hydration assay.
Experiment [5] has as its system MCF7. In words: Antiproliferative activity against human MCF7 cells assessed as reduction in cell viability after 72 hrs under normoxic condition by MTT assay. As to conditions: MCF7, 72 h.
The subject of experiment [6] is MDA-MB-231. In words: Antiproliferative activity against human MDA-MB-231 cells assessed as reduction in cell viability after 72 hrs under normoxic condition by MTT assay. As to conditions: MDA-MB-231, 72 h.
Experiment [7] has as its system MCF7. The experiment can be described thus: Antiproliferative activity against human MCF7 cells assessed as reduction in cell viability after 72 hrs under hypoxic condition by MTT assay. The conditions noted are these: MCF7, 72 h.
Experiment [8] is described as follows: Antiproliferative activity against human WI26VA4 cells assessed as reduction in cell viability after 72 hrs under hypoxic condition by MTT assay. As to conditions: WI26VA4, 72 h.
The test system of experiment [9] is MDA-MB-231. The experiment can be described thus: Antiproliferative activity against human MDA-MB-231 cells assessed as reduction in cell viability after 72 hrs under hypoxic condition by MTT assay. The conditions noted are these: MDA-MB-231, 72 h.
The nature of experiment [10]: Antiproliferative activity against human WI26VA4 cells assessed as reduction in cell viability after 72 hrs under normoxic condition by MTT assay. The conditions noted are these: WI26VA4, 72 h.

From ChEMBL document CHEMBL4811239, “Insertion of metal carbenes into the anilinic N-H bond of unprotected aminobenzenesulfonamides delivers low nanomolar inhibitors of human carbonic anhydrase IX and XII isoforms” (Eur J Med Chem, 2021) come the findings set out here.

Activity calls are given as the source filed them. No cut-off for these calls is given here.

Chain of Carbonic anhydrase 1 (P00915 whole entry): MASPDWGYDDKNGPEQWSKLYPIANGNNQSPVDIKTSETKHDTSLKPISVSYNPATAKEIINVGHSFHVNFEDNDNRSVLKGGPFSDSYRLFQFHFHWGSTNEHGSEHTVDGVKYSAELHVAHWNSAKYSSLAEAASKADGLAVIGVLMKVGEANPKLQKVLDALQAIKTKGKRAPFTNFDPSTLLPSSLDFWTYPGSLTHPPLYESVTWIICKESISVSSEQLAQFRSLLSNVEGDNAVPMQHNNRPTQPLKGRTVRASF
Chain of Carbonic anhydrase 12 (O43570 whole entry): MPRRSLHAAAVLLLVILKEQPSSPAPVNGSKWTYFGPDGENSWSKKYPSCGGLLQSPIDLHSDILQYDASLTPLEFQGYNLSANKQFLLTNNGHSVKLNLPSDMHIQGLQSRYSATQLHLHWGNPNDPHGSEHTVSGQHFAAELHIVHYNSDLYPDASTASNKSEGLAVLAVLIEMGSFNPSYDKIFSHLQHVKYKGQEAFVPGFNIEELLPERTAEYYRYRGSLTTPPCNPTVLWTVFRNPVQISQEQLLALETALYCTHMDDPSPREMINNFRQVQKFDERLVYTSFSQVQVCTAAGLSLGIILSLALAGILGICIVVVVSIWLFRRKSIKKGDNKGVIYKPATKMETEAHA

Usually Ki stands for a measure of affinity in units of concentration, obtained from inhibition or displacement. For `CCOC(=O)C(Nc1ccc(S(N)(=O)=O)cc1)C(=O)c1ccc(OC)cc1` (configuration not stated), the outcome in the experiment with MCF7 [1], in the experiment on MCF7 [2], in the experiment with MDA-MB-231 [3] and in the experiment on MDA-MB-231 [4] was inactive. For the same molecule, the inhibitory constant (Ki) was determined as 314 nM on Carbonic anhydrase 1, 16.5 nM at Carbonic anhydrase 12 and 12.5 nM at Carbonic anhydrase 9.
For `CC(C)OC(=O)C(Nc1ccc(S(N)(=O)=O)cc1)C(=O)OC(C)C`, the result in the experiment on MCF7 [1], in the experiment on MCF7 [2], in the experiment with MDA-MB-231 [3] and with MDA-MB-231 [4] was inactive. Besides, the Ki was 105 nM on Carbonic anhydrase 1, 61.4 nM at Carbonic anhydrase 12 and 28.1 nM at Carbonic anhydrase 9.
As to `CC(C(=O)Nc1ccc(S(N)(=O)=O)cc1)C(=O)c1ccc(Cl)cc1` (configuration not stated), the result in the experiment on MCF7 [1] and in the experiment on MCF7 [2] was Active. The figures for the Ki at Carbonic anhydrase 1, on Carbonic anhydrase 12 and at Carbonic anhydrase 9 were 215 nM, 22.6 nM and 34.3 nM, respectively. Moreover, the Activity in the experiment on MDA-MB-231 [3] and with MDA-MB-231 [4] was 30% in each case.
For `NS(=O)(=O)c1cccc(NCC(=O)N2CCN(Cc3ccc(Cl)cc3)CC2)c1`, the result in the experiment on MCF7 [1], in the experiment on MCF7 [2], in the experiment on MDA-MB-231 [3] and in the experiment with MDA-MB-231 [4] was inactive. Further, the Ki is 3950 nM at Carbonic anhydrase 1, 36.1 nM at Carbonic anhydrase 12 and 116 nM at Carbonic anhydrase 9.
Take `NS(=O)(=O)c1ccc(NC2CCCCCC2=O)cc1` (configuration not stated): the result with MCF7 [1] and in the experiment with MCF7 [2] was inactive. The Ki at Carbonic anhydrase 1 was 202 nM; on Carbonic anhydrase 12 it was 49.2 nM; at Carbonic anhydrase 9, 6.4 nM. Besides, the Activity in the experiment with MDA-MB-231 [3] and in the experiment on MDA-MB-231 [4] was 30% each time.
For the molecule `CCOC(=O)C(Nc1cccc(S(N)(=O)=O)c1)C(=O)c1ccccc1` (configuration not stated), the result with MCF7 [1] and in the experiment with MCF7 [2] was inactive. The Ki on Carbonic anhydrase 1 was 1570 nM; at Carbonic anhydrase 12, 82.9 nM; at Carbonic anhydrase 9 it was 58.6 nM. Also, the Activity with MDA-MB-231 [3] and with MDA-MB-231 [4] was 30% throughout.
With `NS(=O)(=O)c1ccc(NC2CCN(c3ccccc3)C2=O)cc1` (configuration not stated), the outcome with MCF7 [1], in the experiment with MCF7 [2], in the experiment on MDA-MB-231 [3] and with MDA-MB-231 [4] was inactive. Further, the Ki was determined as 62 nM at Carbonic anhydrase 1, 24.9 nM on Carbonic anhydrase 12 and 9.5 nM on Carbonic anhydrase 9.
In the case of `COCC(=O)C(Nc1ccc(S(N)(=O)=O)cc1)C(=O)OC` (configuration not stated), the result in the experiment on MCF7 [1], with MCF7 [2], in the experiment with MDA-MB-231 [3] and in the experiment with MDA-MB-231 [4] was inactive. In addition, the results for the Ki on Carbonic anhydrase 1, on Carbonic anhydrase 12 and on Carbonic anhydrase 9 were 69.8 nM, 24.7 nM and 64.1 nM, respectively.
As for `CCOC(=O)C(Nc1ccc(S(N)(=O)=O)cc1)c1ccc(Cl)cc1` (configuration not stated), the result with MCF7 [1] and in the experiment with MCF7 [2] was inactive. For the same molecule, the Ki was 135 nM at Carbonic anhydrase 1, 63 nM on Carbonic anhydrase 12 and 54.3 nM at Carbonic anhydrase 9. Moreover, the Activity in the experiment on MDA-MB-231 [3] and in the experiment with MDA-MB-231 [4] was 30% each time.
Take `COc1ccc(C(=O)CNc2ccc(S(N)(=O)=O)cc2)cc1`: the outcome in the experiment on MCF7 [1] and with MCF7 [2] was Active. Further, the Ki at Carbonic anhydrase 1 came to 124 nM; at Carbonic anhydrase 12 it was 81.7 nM; at Carbonic anhydrase 9, 10.1 nM. The outcome in the experiment on MDA-MB-231 [3] and with MDA-MB-231 [4] was inactive.
For the molecule `CC(C)(C)C(=O)CNc1cccc(S(N)(=O)=O)c1`, the result with MCF7 [1], with MCF7 [2], in the experiment on MDA-MB-231 [3] and in the experiment with MDA-MB-231 [4] was inactive. In addition, the Ki turned out to be 343 nM on Carbonic anhydrase 1, 24.1 nM on Carbonic anhydrase 12 and 41.7 nM on Carbonic anhydrase 9.
For `CCOC(=O)C(Nc1ccc(S(N)(=O)=O)cc1)C(=O)c1ccccc1` (configuration not stated), the result with MCF7 [1], with MCF7 [2], in the experiment with MDA-MB-231 [3] and in the experiment on MDA-MB-231 [4] was inactive. The Ki on Carbonic anhydrase 1 was found to be 245 nM; on Carbonic anhydrase 12 it was 21.8 nM; on Carbonic anhydrase 9, 18 nM.
As usually defined, the IC50 is the midpoint of a concentration-inhibition curve. Take `Cc1ccc(N2C(=O)C(Cc3ccc(Cl)cc3)=C(Nc3cccc(S(N)(=O)=O)c3)C2=O)cc1`: the viability at 100 µM with MCF7 [1] and in the experiment on MCF7 [2] was 10% in each case. The Ki at Carbonic anhydrase 1 is above 10000 nM; on Carbonic anhydrase 12, 1070 nM; on Carbonic anhydrase 9 it was 635 nM. Also, the IC50 with MCF7 [5] turned out to be 14900 nM; in the experiment on MDA-MB-231 [6], 37200 nM; with MCF7 [7], 15300 nM; in [8], 35600 nM; in the experiment with MDA-MB-231 [9], 36800 nM; in [10], 22000 nM.
As to `NS(=O)(=O)c1ccc(NC2CCN(c3cccc(C(F)(F)F)c3)C2=O)cc1` (configuration not stated), the result in the experiment on MCF7 [1], in the experiment with MCF7 [2], with MDA-MB-231 [3] and with MDA-MB-231 [4] was inactive. For the same molecule, the Ki at Carbonic anhydrase 1 is 463 nM; on Carbonic anhydrase 12 it was 13.8 nM; on Carbonic anhydrase 9, 19.7 nM.
As for `CCOC(=O)C(C(=O)Nc1ccc(S(N)(=O)=O)cc1)c1ccccc1` (configuration not stated), the outcome in the experiment on MCF7 [1], in the experiment on MCF7 [2], in the experiment with MDA-MB-231 [3] and in the experiment on MDA-MB-231 [4] was inactive. Moreover, the Ki was 311 nM at Carbonic anhydrase 1, 41.6 nM at Carbonic anhydrase 12 and 61.5 nM on Carbonic anhydrase 9.
Turning to `Cc1ccc(C(=O)CNc2ccc(S(N)(=O)=O)cc2)cc1`, the result in the experiment on MCF7 [1], with MCF7 [2], in the experiment with MDA-MB-231 [3] and with MDA-MB-231 [4] was inactive. For the same molecule, the Ki is 53.3 nM on Carbonic anhydrase 1, 67.4 nM on Carbonic anhydrase 12 and 15.2 nM at Carbonic anhydrase 9.
`Cc1ccc(N2C(=O)C(Cc3ccc(Cl)cc3)=C(Nc3ccc(S(N)(=O)=O)cc3)C2=O)cc1`: the viability at 100 µM with MCF7 [1] and in the experiment on MCF7 [2] was 10% in each case. For the same molecule, the Ki is above 10000 nM on Carbonic anhydrase 1, 128 nM on Carbonic anhydrase 12 and 81.9 nM at Carbonic anhydrase 9. Also, the IC50 worked out at 10800 nM in the experiment on MCF7 [5]; 16600 nM with MDA-MB-231 [6]; 11500 nM in the experiment on MCF7 [7]; 26200 nM in experiment [8]; 15600 nM with MDA-MB-231 [9]; 21900 nM in [10].
Turning to `Cc1ccc(C(=O)CNc2cccc(S(N)(=O)=O)c2)cc1`, the outcome in the experiment on MCF7 [1], with MCF7 [2], in the experiment with MDA-MB-231 [3] and in the experiment on MDA-MB-231 [4] was inactive. Besides, the Ki at Carbonic anhydrase 1 was 294 nM; at Carbonic anhydrase 12, 208 nM; at Carbonic anhydrase 9 it was 63.9 nM.
Consider `NS(=O)(=O)c1ccc(NC2CCN(c3nccs3)C2=O)cc1` (configuration not stated), for which the outcome with MCF7 [1], in the experiment with MCF7 [2], with MDA-MB-231 [3] and with MDA-MB-231 [4] was inactive. Besides, the Ki at Carbonic anhydrase 1 worked out at 138 nM; on Carbonic anhydrase 12, 18.8 nM; on Carbonic anhydrase 9, 36.8 nM.
On to `CCN(CC)C(=O)CNc1cccc(S(N)(=O)=O)c1`, for which the outcome in the experiment on MCF7 [1], in the experiment on MCF7 [2], in the experiment on MDA-MB-231 [3] and with MDA-MB-231 [4] was inactive. Besides, the Ki worked out at 70.6 nM on Carbonic anhydrase 1, 83.7 nM at Carbonic anhydrase 12 and 45.9 nM at Carbonic anhydrase 9.
With `CCN(CC)C(=O)CNc1ccc(S(N)(=O)=O)cc1`, the result in the experiment on MCF7 [1], in the experiment on MCF7 [2], with MDA-MB-231 [3] and in the experiment on MDA-MB-231 [4] was inactive. Moreover, the Ki is 243 nM on Carbonic anhydrase 1, 33.2 nM on Carbonic anhydrase 12 and 89.1 nM on Carbonic anhydrase 9.
Take `CCOC(=O)C(Nc1ccc(S(N)(=O)=O)cc1)c1ccc(OC)c(OC)c1` (configuration not stated): the outcome in the experiment with MCF7 [1], in the experiment with MCF7 [2], in the experiment on MDA-MB-231 [3] and with MDA-MB-231 [4] was inactive. The Ki on Carbonic anhydrase 1 turned out to be 5880 nM; at Carbonic anhydrase 12, 35.7 nM; at Carbonic anhydrase 9, 6.5 nM.
